Data reported in patent publication US7022681B2, “Partial and full agonists of A1 adenosine receptors” (CV Therapeutics, Inc., priority 2002, dated 2006).

Legend:
awake rats [1] = assay: Antilipolytic properties: NEFA concentration in awake rats; format: in vivo, rat; settings: oral administration
Excerpt: • Animals. Male Sprague-Dawley rats (380–420 g) were purchased from Simonsen Laboratories (Gilroy, Calif.). All animals received humane care according to the guidelines set forth in The Principles of Laboratory Animal Care formulated by the National Society for Medical Research and the Guide for the Care and Use of Laboratory Animals prepared by the Institute of Laboratory Animal Resources and published by the National Institute of Health (NIH Publication 86-23, revised 1996). • Isolation of Rat Epididymal Adipocytes. Adipocytes were isolated from the epididymal fat pads of rats as described previously (Rodbell, 1964). Briefly, rats were anesthetized using methoxyfluorane and killed by exsanguination. Epididymal fat tissue was removed and placed into a modified Krebs (KRH) solution containing NaCl (100 mM), KCl (4.7 mM), CaCl2 (2.5 mM), NaHCO3 (3.6 mM), MgSO4 (1.19 mM), KH2PO4 (1.18 mM), dextrose (5 mM), pyruvic acid (5 mM), ascorbic acid (1 mM), and HEPES (5 mM), pH 7.4. Visible blood vessels were dissected and excised, and the adipose tissue was minced. Minced tissue was digested with 25 ml of fresh KRH solution containing type I collagenase (1 mg/ml), fatty-acid free BSA [1% (wt/vol)] and nicotinic acid (2_M, to inhibit lipolysis) for 40 to 60 minutes at 37° C. with continuous gentle shaking. The cell suspension was filtered through a nylon-mesh (210_m) to remove undigested tissue fragments. The cell filtrate was washed three times using KRH solution containing 1% fatty acid-free BSA at 37° C. The final adipocyte suspension was either diluted in fresh KRH solution with 1% fatty acid-free BSA for use in cAMP experiments, or used to prepare membranes for radioligand binding assays. • cAMP Assays in Isolated Rat Adipocytes. Aliquots (100 μl, 45,000–90,000 cells) of the freshly prepared adipocyte cell suspension were placed into wells of 24-well cell culture plates containing 0.4 ml of KRH solution containing fatty acid-free BSA (1%), ascorbic acid (1 mM), rolipram (10 μM), cilostamide (1 μM), adenosine deaminase (2 U/ml), and appropriate A1 adenosine receptor agonist(s). An aliquot of 0.5 ml of KRH solution containing 60 nM isoproterenol was added to each well, and incubations proceeded for 4 min in an orbital shaker bath maintained at 37° C. Assays were terminated by the addition of 200 μl of 300 mM HCl to each well to lyse the cells. The concentration of cAMP in the cell lysate was determined using colorimetric direct cAMP kits (Assay Designs, Inc., Ann Arbor, Mich.). Adipocyte Membrane Preparation and Competition Binding • Assays. Freshly isolated adipocytes were added to a chilled solution containing sucrose (0.25 M), EDTA (1 mM), and Tris-HCl (10 mM, pH 7.4) and homogenized with 10 strokes using a motordriven tissue grinder. The homogenate was cooled on ice and the fat layer was discarded. The homogenate was then centrifuged at 500 g for 10 min at 4° C. The supernatant under the fat layer was removed, resuspended in fresh buffer, and homogenized a second time with six strokes using the tissue grinder. Cell membranes were collected by centrifugation of the homogenate at 15,000 g for 15 min. The final membrane pellet was resuspended in a solution containing sucrose (0.25 M), phenylmethylsulfonyl fluoride (0.1 mM), leupeptin (5 μg/ml), aprotinin ([…]), adenosine deaminase (2 U/ml), and Tris-HCl (10 mM) buffer, pH 7.4. The membrane suspension was frozen and stored in liquid nitrogen. For competition binding assays, membrane suspensions were thawed and incubated for 2 hours at room temperature in Tris-HCl (50 mM) buffer containing ADA (1 U/ml), guanosine 5-(imido)triphosphate ([…]), and [3H]CPX (1–3nM) and progressively higher concentrations of the competing agent. At the end of incubation, free radioligand was separated from membrane-bound radioligand by filtration through GF/C glass fiber filters (Whatman, Maidstone, UK) using a tissue harvester (Brandel, Inc., Gaithersburg, Md.). Radioactivity was quantified by liquid scintillation counting. […]

awake rats [2] = assay: Heart rate in awake rats (telemetry); format: in vivo, rat; settings: dose levels of 1 mg/kg, 2.5 mg/kg, and 5 mg/kg
Experimental: Heart rate was measured from rats chronically instrumented with telemetry transmitters. For transmitter implantation, a midline laparotomy was performed on anesthetized rats and a transmitter for ECG recording was sutured to the abdominal wall. The two electrocardiographic leads were tunneled through the wall, passed subcutaneously (one to the left shoulder, the other to the right thigh), and secured in place with sutures. Heart rates of awake rats were measured using a Dataquest ART Gold System (Data Sciences International, St. Paul, Minn.). Cardiac electrical activity was recorded for 10-s periods and used to calculate heart rate in beats per minute. After recording of a baseline heart rate, either vehicle (0.9% DMSO in saline, 0.5 ml) or a compound of Formula I was injected into the intraperitoneal cavity of each rat, and heart rate was monitored at intervals for an additional 3 hours.
The effects of a compound of Formula I on heart rate and serum NEFA reduction concentration were determined in separate groups of rats to avoid the effects of animal handling and blood sampling on heart rate. Three days before an experiment, a catheter ([…] outer diameter) was implanted in the left common carotid artery of each rat using aseptic conditions and sterile technique. […] Serum NEFA concentration was determined using an enzymatic colorimetric assay kit (Wako Chemicals, Richmond, Va.).

A1 receptor = A1 receptor (Cavia porcellus, UniProt P47745); settings: chronic administration for 7 days, guinea pigs; cited from earlier work
seizures induced by DMCM = settings: experimental models of epilepsy; cited from earlier work

A1 receptor, sequence (P47745 whole entry): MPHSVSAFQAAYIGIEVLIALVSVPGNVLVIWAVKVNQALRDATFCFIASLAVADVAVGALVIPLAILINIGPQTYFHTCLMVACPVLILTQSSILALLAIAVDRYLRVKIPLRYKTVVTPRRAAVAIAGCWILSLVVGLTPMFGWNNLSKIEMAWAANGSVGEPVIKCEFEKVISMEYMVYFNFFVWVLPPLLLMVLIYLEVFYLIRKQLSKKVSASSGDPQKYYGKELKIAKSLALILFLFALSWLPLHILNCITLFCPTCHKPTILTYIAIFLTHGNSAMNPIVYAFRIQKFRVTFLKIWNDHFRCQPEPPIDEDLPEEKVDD

O[C@@H]1[C@H](O)[C@@H](C#Cc2ccccc2F)O[C@H]1n1cnc2c(NC3CCCC3)ncnc21 [(4S,2R,3R,5R)-2-[6-(cyclopentylamino)purin-9-yl]-5-{2-[2-fluorophenyl]-ethynyl}oxolane-3,4-diol]
initial reduction of non-esterified free fatty acid (NEFA) (awake rats [1]; 1 mg/Kg): 40% | time in which plasma levels of NEFA returned to normal (awake rats [1]; 1 mg/Kg): 2 h | time the NEFA reduction was maintained (awake rats [1]; 1 mg/Kg): 1 h | initial reduction of non-esterified free fatty acid (NEFA) (awake rats [1]; 2.5 mg/Kg): 60% | time in which plasma levels of NEFA returned to normal (awake rats [1]; 2.5 mg/Kg): 4 h | time the NEFA reduction was maintained (awake rats [1]; 2.5 mg/Kg): 1.5 h | effect on heart rate (awake rats [2]): no effect on heart rate was observed

C[C@H](Cc1ccccc1)Nc1ncnc2c1ncn2[C@@H]1O[C@H](CO)[C@@H](O)[C@H]1O [R-PIA, R-N6-phenylisopropyladenosine]
desensitization in terms of the dromotropic response (A1 receptor): desensitization of the A1 receptor

Cc1ccccc1CNc1ncnc2c1ncn2[C@@H]1O[C@H](CO)[C@@H](O)[C@H]1O [metrifudil]
anticonvulsant activity against seizures induced by DMCM (seizures induced by DMCM): potent anticonvulsant
